# Where two headings read alike, the source gives them in different places.
# What was measured:
# Immature Rat CX + DHT = experiment: animal or person; format: in vivo; settings: po; for change in vivo at 0.1 mg / change in vivo at 0.5 mg: Rattus norvegicus, 168 h
# Immature Rat CX = settings: for In Vivo Agonist % Change vs CX (DHT = +100%) SV / In Vivo Agonist % Change vs CX (DHT = +100%) VP: po
# [1] = test system: Shionogi mouse mammary carcinoma cells; experiment: cells; format: cell-based; settings: for Ki: read-out: Shionogi cells Antiandrogenic activity Ki; for % of inh of DHT at 10^−7 M (Basal = 100%): 0.0003 µM
# Human Androgen Receptor = molecular target: T1, Human Androgen Receptor (Homo sapiens, UniProt P10275); format: binding
# T1 construct: expressed in transfected cells; host or cells: HEK-293 cells stably transfected with the pCMVneo-hAR plasmid (G-418 selection); cytosol used
# T1 sequence (P10275 1-920): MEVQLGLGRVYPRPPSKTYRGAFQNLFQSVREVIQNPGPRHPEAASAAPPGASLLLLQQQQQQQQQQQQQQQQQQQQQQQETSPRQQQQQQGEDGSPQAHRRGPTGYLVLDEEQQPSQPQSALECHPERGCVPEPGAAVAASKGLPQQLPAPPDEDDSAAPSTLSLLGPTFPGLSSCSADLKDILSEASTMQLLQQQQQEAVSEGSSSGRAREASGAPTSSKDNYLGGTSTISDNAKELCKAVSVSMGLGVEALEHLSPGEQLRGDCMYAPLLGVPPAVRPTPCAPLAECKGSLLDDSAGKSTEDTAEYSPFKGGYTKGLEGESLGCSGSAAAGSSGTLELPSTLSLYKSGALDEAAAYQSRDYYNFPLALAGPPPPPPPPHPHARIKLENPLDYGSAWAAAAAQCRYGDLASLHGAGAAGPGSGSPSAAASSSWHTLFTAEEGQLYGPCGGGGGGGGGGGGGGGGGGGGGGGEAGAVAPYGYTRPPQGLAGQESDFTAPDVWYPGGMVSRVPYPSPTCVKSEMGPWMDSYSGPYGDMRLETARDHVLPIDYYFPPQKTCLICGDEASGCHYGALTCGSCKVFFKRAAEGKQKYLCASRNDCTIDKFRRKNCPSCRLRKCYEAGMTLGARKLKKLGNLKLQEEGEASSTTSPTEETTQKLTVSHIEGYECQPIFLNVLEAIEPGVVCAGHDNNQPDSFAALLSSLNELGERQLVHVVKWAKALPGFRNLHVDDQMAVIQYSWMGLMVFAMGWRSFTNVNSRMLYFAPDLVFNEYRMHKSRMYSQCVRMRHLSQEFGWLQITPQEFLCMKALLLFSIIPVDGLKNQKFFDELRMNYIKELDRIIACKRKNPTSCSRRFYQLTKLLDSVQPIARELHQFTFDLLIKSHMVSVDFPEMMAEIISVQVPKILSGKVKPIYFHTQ
# Intact Rat = experiment: In vivo activity in intact rat (organ and muscle weight); settings: rat, in vivo
# [2] = read-out: In Vivo Antagonist % Change vs DHT (CX = −100%) SV
# [3] = read-out: In Vivo Antagonist % Change vs DHT (CX = −100%) VP
smiles,measurement,setting,value
C[C@]12CCC3c4ccc(C#N)cc4CCC3C1CC[C@@]2(O)Cc1ccc(-c2ccncc2)cc1 (stereo partly shown) [EM-4240],change in vivo at 0.1 mg,Immature Rat CX + DHT; [2],-58 ± 2%
same,change in vivo at 0.5 mg,Immature Rat CX + DHT; [2],-85%
same,change in vivo at 0.1 mg,Immature Rat CX + DHT; [3],-46 ± 9%
same,change in vivo at 0.5 mg,Immature Rat CX + DHT; [3],-52%
same,In Vivo Agonist % Change vs CX (DHT = +100%) SV,Immature Rat CX,+3 ± 1%
same,In Vivo Agonist % Change vs CX (DHT = +100%) VP,Immature Rat CX,+12 ± 3%
same,Shionogi cells Antiandrogenic activity Ki OH-Flu/Ki compound,[1],1.4
same,Ki,[1],24 nM
same,Human Androgen Receptor Binding RBA (%) R1881 = 100%,Human Androgen Receptor,110%
C[C@]12CCC3c4ccc(C#N)c(F)c4CCC3C1CC[C@@]2(O)Cc1ccncc1 (stereo partly shown) [EM-5855],In Vivo Agonist % Change vs CX (DHT = +100%) SV,Immature Rat CX,[1 ± 4] %
same,In Vivo Agonist % Change vs CX (DHT = +100%) VP,Immature Rat CX,[2 ± 1] %
same,Shionogi cells Antiandrogenic activity Ki OH-Flu/Ki compound,[1],11 ± 1
same,Ki,[1],1 ± 0.2 nM
same,Human Androgen Receptor Binding RBA (%) R1881 = 100%,Human Androgen Receptor,8.2 ± 0.5%
C[C@]12CCC3c4ccc(C#N)c(Cl)c4CCC3C1CCC[C@@]2(O)Cc1ccncc1 (stereo partly shown) [EM-5943],In Vivo Agonist % Change vs CX (DHT = +100%) SV,Immature Rat CX,+3 ± 4%
same,In Vivo Agonist % Change vs CX (DHT = +100%) VP,Immature Rat CX,+2 ± 2%
same,Ki,[1],2.1 ± 1.8 nM
same,Human Androgen Receptor Binding RBA (%) R1881 = 100%,Human Androgen Receptor,26%
Cc1c(C#N)ccc2c1CCC1C2CC[C@@]2(C)C1CC[C@@]2(O)Cc1ccncc1 (stereo partly shown) [EM-5984],In Vivo Agonist % Change vs CX (DHT = +100%) SV,Immature Rat CX,0%
same,In Vivo Agonist % Change vs CX (DHT = +100%) VP,Immature Rat CX,0%
same,Shionogi cells Antiandrogenic activity Ki OH-Flu/Ki compound,[1],4.0
same,Ki,[1],1.9 nM
same,Human Androgen Receptor Binding RBA (%) R1881 = 100%,Human Androgen Receptor,29%
C[C@]12CCC3c4ccc(C#N)c(Cl)c4CCC3C1CC[C@@]2(O)Cc1cc[n+]([O-])cc1F (stereo partly shown) [EM-5987],change in vivo at 0.5 mg,Immature Rat CX + DHT; [2],-83%
same,change in vivo at 0.5 mg,Immature Rat CX + DHT; [3],-69%
same,Ki,[1],0.35 ± 0.15 nM
same,Human Androgen Receptor Binding RBA (%) R1881 = 100%,Human Androgen Receptor,6.8 ± 1.7%
C[C@]12CCC3c4ccc(C#N)c(Cl)c4CCC3C1CC[C@@]2(O)Cc1ccncc1F (stereo partly shown) [EM-5988],In Vivo Antagonist % Change vs DHT (CX = −100%) SV,"Immature Rat CX + DHT; rat, in vivo",[−83 ± 3] %
same,In Vivo Antagonist % Change vs DHT (CX = −100%) VP,"Immature Rat CX + DHT; rat, in vivo",[−71 ± 5] %
same,In Vivo Agonist % Change vs CX (DHT = +100%) SV,Immature Rat CX,+10 ± 0%
same,In Vivo Agonist % Change vs CX (DHT = +100%) VP,Immature Rat CX,+10 ± 0%
same,Shionogi cells Antiandrogenic activity Ki (nM),[1],mixed
same,Shionogi cells Antiandrogenic activity Ki OH-Flu/Ki compound,[1],mixed
same,Human Androgen Receptor Binding RBA (%) R1881 = 100%,Human Androgen Receptor,97 ± 19%
C[C@H]1C[C@@]2(C)C(CC[C@@]2(O)Cc2ccncc2)C2CCc3c(ccc(C#N)c3F)C21 (stereo partly shown) [EM-6582],In Vivo Anti-A Rat CX + DHT % change vs DHT (CX CONT = −100%) SV,"Immature Rat CX + DHT; rat, in vivo",−60 ± 6%
same,In Vivo Anti-A Rat CX + DHT % change vs DHT (CX CONT = −100%) VP,"Immature Rat CX + DHT; rat, in vivo",−36 ± 1%
same,In Vivo Intact Rat % change vs Intact CONT (Intact CONT = +100%; CX CONT = 0%) Bulbo,Intact Rat,+197 ± 29%
same,In Vivo Intact Rat % change vs Intact CONT (Intact CONT = +100%; CX CONT = 0%) SZ,Intact Rat,+49 ± 5%
same,In Vivo Intact Rat % change vs Intact CONT (Intact CONT = +100%; CX CONT = 0%) VP,Intact Rat,+72 ± 6%
same,In Vivo Agonist Rat CX % change vs CX (DHT CONT = +100%) Bulbo,Immature Rat CX,+71 ± 15%
same,In Vivo Agonist Rat CX % change vs CX (DHT CONT = +100%) SV,Immature Rat CX,+18 ± 3%
same,In Vivo Agonist Rat CX % change vs CX (DHT CONT = +100%) VP,Immature Rat CX,+37 ± 3%
same,% of stim of basal at 10^−7M (% over basal),[1],+145 ± 78%
same,% of stim of basal at 10^−7 M (DHT = 100%),[1],+41 ± 22%
same,% of inh of DHT at 10^−7 M (Basal = 100%),[1],+59 ± 22%
same,Human Androgen Receptor Binding RBA (%) R1881 = 100%,Human Androgen Receptor,331%
C[C@H]1C[C@@]2(C)C(CC[C@@]2(O)Cc2ccncc2F)C2CCc3c(ccc(C#N)c3F)C21 (stereo partly shown) [EM-6594],In Vivo Anti-A Rat CX + DHT % change vs DHT (CX CONT = −100%) SV,"Immature Rat CX + DHT; rat, in vivo",[−69 ± 4] %
same,In Vivo Anti-A Rat CX + DHT % change vs DHT (CX CONT = −100%) VP,"Immature Rat CX + DHT; rat, in vivo",[−56 ± 4] %
same,In Vivo Agonist Rat CX % change vs CX (DHT CONT = +100%) Bulbo,Immature Rat CX,+97 ± 19%
same,In Vivo Agonist Rat CX % change vs CX (DHT CONT = +100%) SV,Immature Rat CX,+13 ± 2%
same,In Vivo Agonist Rat CX % change vs CX (DHT CONT = +100%) VP,Immature Rat CX,+28 ± 7%
same,% of stim of basal at 10^−7M (% over basal),[1],+224%
same,% of stim of basal at 10^−7 M (DHT = 100%),[1],+63%
same,% of inh of DHT at 10^−7 M (Basal = 100%),[1],+37%
same,Human Androgen Receptor Binding RBA (%) R1881 = 100%,Human Androgen Receptor,292%
